From ChEMBL document CHEMBL1124314, “Development of phosphonate derivatives of gadolinium chelates for NMR imaging of calcified soft tissues” (J Med Chem, 1989)

What was measured:
Rattus norvegicus [1] = species: Rattus norvegicus; experiment: Biodistribution in rat muscle in the presence of GdDTPA-HPDPat 15 min; assay type: ADME, organism-based, Muscle tissue; conditions: in vivo, 0.25 h
Rattus norvegicus [2] = species: Rattus norvegicus; experiment: Biodistribution in rat bone in the presence of GdDTPA at 1 hr; assay type: ADME, organism-based, Bone element; conditions: in vivo
Rattus norvegicus [3] = species: Rattus norvegicus; experiment: Biodistribution in rat heart in the presence of GdDTPA at 20 min; conditions: in vivo, 0.33 h
Rattus norvegicus [4] = species: Rattus norvegicus; experiment: Biodistribution in rat heart in the presence of 0.01 M GdDTPA-BDP; assay type: ADME, organism-based; conditions: in vivo
Rattus norvegicus [5] = species: Rattus norvegicus; experiment: Biodistribution in rat kidney in the presence of 0.10 M GdDTPA-BDP; assay type: ADME, organism-based; conditions: in vivo
Rattus norvegicus [6] = species: Rattus norvegicus; experiment: Biodistribution in rat muscle in the presence of GdDTPA-HPDPat 30 min; assay type: ADME, organism-based, Muscle tissue; conditions: in vivo, 0.5 h
Rattus norvegicus [7] = species: Rattus norvegicus; experiment: Biodistribution in rat heart in the presence of 0.05 M GdDTPA-BDP; assay type: ADME, organism-based; conditions: in vivo
Rattus norvegicus [8] = species: Rattus norvegicus; experiment: Biodistribution in rat blood in the presence of 0.05 M GdDTPA-BDP; assay type: ADME, organism-based; conditions: in vivo
Rattus norvegicus [9] = species: Rattus norvegicus; experiment: Biodistribution in rat muscle in the presence of 0.05 M GdDTPA-BDP; assay type: ADME, organism-based, Muscle tissue; conditions: in vivo
Rattus norvegicus [10] = species: Rattus norvegicus; experiment: Biodistribution in rat heart in the presence of GdDTPA-BDP at 2 hr; conditions: in vivo
Rattus norvegicus [11] = species: Rattus norvegicus; experiment: Biodistribution in rat blood in the presence of GdDTPA at 20 min; conditions: in vivo, 0.33 h
Rattus norvegicus [12] = species: Rattus norvegicus; experiment: Biodistribution in rat kidney in the presence of 0.01 M GdDTPA-BDP; assay type: ADME, organism-based; conditions: in vivo
Rattus norvegicus [13] = species: Rattus norvegicus; experiment: Biodistribution in rat liver in the presence of GdDTPA at 30 min; assay type: ADME, organism-based; conditions: in vivo, 0.5 h
Rattus norvegicus [14] = species: Rattus norvegicus; experiment: Biodistribution in rat heart in the presence of GdDTPA-BDP at 4 hr; conditions: in vivo
Rattus norvegicus [15] = species: Rattus norvegicus; experiment: Biodistribution in rat blood in the presence of GdDTPA-BDPat 1 hr; assay type: ADME, organism-based; conditions: in vivo
Rattus norvegicus [16] = species: Rattus norvegicus; experiment: Biodistribution in rat bone in the presence of GdDTPA at 30 min; assay type: ADME, organism-based, Bone element; conditions: in vivo, 0.5 h
Rattus norvegicus [17] = species: Rattus norvegicus; experiment: Biodistribution in rat kidney in the presence of NAC Gd/0.01 M GdDTPA-HPDP; assay type: ADME, organism-based; conditions: in vivo
Rattus norvegicus [18] = species: Rattus norvegicus; experiment: Biodistribution in rat heart in the presence of GdDTPA-HPDP at 30 min; assay type: ADME, organism-based; conditions: in vivo, 0.5 h
Rattus norvegicus [19] = species: Rattus norvegicus; experiment: Biodistribution in rat bone in the presence of GdDTPA-HPDP at 4 hr; assay type: ADME, organism-based, Bone element; conditions: in vivo
Rattus norvegicus [20] = species: Rattus norvegicus; experiment: Biodistribution in rat blood in the presence of NAC Gd/0.01 M GdDTPA-HPDP; assay type: ADME, organism-based; conditions: in vivo
Rattus norvegicus [21] = species: Rattus norvegicus; experiment: Biodistribution in rat blood in the presence of GdDTPA-HPDP at 15 min; assay type: ADME, organism-based; conditions: in vivo, 0.25 h
Rattus norvegicus [22] = species: Rattus norvegicus; experiment: Biodistribution in rat muscle in the presence of GdDTPA-HPDP at 1 hr; assay type: ADME, organism-based, Muscle tissue; conditions: in vivo
Rattus norvegicus [23] = species: Rattus norvegicus; experiment: Biodistribution in rat heart in the presence of GdDTPA-HPDP at 1 hr; assay type: ADME, organism-based; conditions: in vivo
Rattus norvegicus [24] = species: Rattus norvegicus; experiment: Biodistribution in rat muscle in the presence of GdDTPA-BDP at 4 hr; assay type: ADME, organism-based, Muscle tissue; conditions: in vivo
Rattus norvegicus [25] = species: Rattus norvegicus; experiment: Biodistribution in rat bone in the presence of NAC Gd/0.01 M GdDTPA-HPDP; assay type: ADME, organism-based, Bone element; conditions: in vivo
Rattus norvegicus [26] = species: Rattus norvegicus; experiment: Biodistribution in rat blood in the presence of 0.10 M/0.11 M GdDTPA-HPDP; conditions: in vivo
Rattus norvegicus [27] = species: Rattus norvegicus; experiment: Biodistribution in rat heart in the presence of GdDTPA-BDP at 1 hr; conditions: in vivo
Rattus norvegicus [28] = species: Rattus norvegicus; experiment: Biodistribution in rat blood in the presence of GdDTPA at 4 hr; assay type: ADME, organism-based; conditions: in vivo
Rattus norvegicus [29] = species: Rattus norvegicus; experiment: Biodistribution in rat liver in the presence of GdDTPA-HPDP at 15 min; assay type: ADME, organism-based; conditions: in vivo, 0.25 h
Rattus norvegicus [30] = species: Rattus norvegicus; experiment: Biodistribution in rat spleen in the presence of 0.10 M GdDTPA-BDP; assay type: ADME, organism-based; conditions: in vivo
Rattus norvegicus [31] = species: Rattus norvegicus; experiment: Biodistribution in rat kidney in the presence of 0.05 M/0.05 M GdDTPA-AEP; assay type: ADME, organism-based; conditions: in vivo
Rattus norvegicus [32] = species: Rattus norvegicus; experiment: Biodistribution in rat bone in the presence of GdDTPA at 20 min; conditions: in vivo, 0.33 h
Rattus norvegicus [33] = species: Rattus norvegicus; experiment: Biodistribution in rat bone in the presence of 0.05 M/0.08 M GdDTPA-HPDP; assay type: ADME, organism-based, Bone element; conditions: in vivo
Rattus norvegicus [34] = species: Rattus norvegicus; experiment: Biodistribution in rat heart in the presence of GdDTPA at 4 hr; assay type: ADME, organism-based; conditions: in vivo
Rattus norvegicus [35] = species: Rattus norvegicus; experiment: Biodistribution in rat blood in the presence of GdDTPA-HPDPat 1 hr; assay type: ADME, organism-based; conditions: in vivo
Rattus norvegicus [36] = species: Rattus norvegicus; experiment: Biodistribution in rat bone in the presence of GdDTPA-BDP at 4 hr; conditions: in vivo
Rattus norvegicus [37] = species: Rattus norvegicus; experiment: Biodistribution in rat liver in the presence of 0.05 M GdDTPA-BDP; assay type: ADME, organism-based; conditions: in vivo
Rattus norvegicus [38] = species: Rattus norvegicus; experiment: Biodistribution in rat blood in the presence of GdDTPA-BDP at 20 min; conditions: in vivo, 0.33 h
Rattus norvegicus [39] = species: Rattus norvegicus; experiment: Biodistribution in rat blood in the presence of GdDTPA-HPDP at 4 hr; assay type: ADME, organism-based; conditions: in vivo
Rattus norvegicus [40] = species: Rattus norvegicus; experiment: Biodistribution in rat kidney in the presence of 0.001 M/0.008 M GdDTPA-AEP; conditions: in vivo
Rattus norvegicus [41] = species: Rattus norvegicus; experiment: Biodistribution in rat blood in the presence of GdDTPA-BDP at 1 hr; conditions: in vivo
Rattus norvegicus [42] = species: Rattus norvegicus; experiment: Biodistribution in rat liver in the presence of GdDTPA-HPDP at 30 min; assay type: ADME, organism-based; conditions: in vivo, 0.5 h
Rattus norvegicus [43] = species: Rattus norvegicus; experiment: Biodistribution in rat kidney in the presence of 0.05 M/0.08 M GdDTPA-HPDP; assay type: ADME, organism-based; conditions: in vivo
Rattus norvegicus [44] = species: Rattus norvegicus; experiment: Biodistribution in rat heart in the presence of GdDTPA-BDP at 30 min; assay type: ADME, organism-based; conditions: in vivo, 0.5 h
Rattus norvegicus [45] = species: Rattus norvegicus; experiment: Biodistribution in rat bone in the presence of GdDTPA-HPDP at 1 hr; assay type: ADME, organism-based, Bone element; conditions: in vivo
Rattus norvegicus [46] = species: Rattus norvegicus; experiment: Biodistribution in rat blood in the presence of 0.01 M GdDTPA-BDP; assay type: ADME, organism-based; conditions: in vivo
Rattus norvegicus [47] = species: Rattus norvegicus; experiment: Biodistribution in rat spleen in the presence of 0.01 M GdDTPA-BDP; assay type: ADME, organism-based; conditions: in vivo
Rattus norvegicus [48] = species: Rattus norvegicus; experiment: Biodistribution in rat blood in the presence of 0.05 M/0.05 M GdDTPA-AEP; assay type: ADME, organism-based; conditions: in vivo
Rattus norvegicus [49] = species: Rattus norvegicus; experiment: Biodistribution in rat liver in the presence of 0.05 M/0.05 M GdDTPA-AEP; assay type: ADME, organism-based; conditions: in vivo
Rattus norvegicus [50] = species: Rattus norvegicus; experiment: Biodistribution in rat bone in the presence of GdDTPA-BDP at 4 hr; assay type: ADME, organism-based, Bone element; conditions: in vivo
Rattus norvegicus [51] = species: Rattus norvegicus; experiment: Biodistribution in rat liver in the presence of GdDTPA-HPDP at 4 hr; assay type: ADME, organism-based; conditions: in vivo
Rattus norvegicus [52] = species: Rattus norvegicus; experiment: Biodistribution in rat blood in the presence of 0.001 M/0.008 M GdDTPA-AEP; assay type: ADME, organism-based; conditions: in vivo
Rattus norvegicus [53] = species: Rattus norvegicus; experiment: Biodistribution in rat liver in the presence of GdDTPA at 1 hr; assay type: ADME, organism-based; conditions: in vivo
Rattus norvegicus [54] = species: Rattus norvegicus; experiment: Biodistribution in rat bone in the presence of 0.05 M GdDTPA-BDP; assay type: ADME, organism-based, Bone element; conditions: in vivo
Rattus norvegicus [55] = species: Rattus norvegicus; experiment: Biodistribution in rat heart in the presence of 0.001 M/0.008 M GdDTPA-AEP; conditions: in vivo

ID/organ (Rattus norvegicus [1]): 6.36%
ID/organ (Rattus norvegicus [2]): 0.779%
ID/organ (Rattus norvegicus [3]): 0.097%
ID/organ (Rattus norvegicus [4]): 0.129%
ID/organ (Rattus norvegicus [5]): 0.29%
ID/organ (Rattus norvegicus [6]): 4.09%
ID/organ (Rattus norvegicus [7]): 0.048%
ID/organ (Rattus norvegicus [8]): 2.53%
ID/organ (Rattus norvegicus [9]): 4.47%
ID/organ (Rattus norvegicus [10]): 0.048%
ID/organ (Rattus norvegicus [11]): 6.03%
ID/organ (Rattus norvegicus [12]): 0.476%
ID/organ (Rattus norvegicus [13]): 0.418%
ID/organ (Rattus norvegicus [14]): 0.037%
ID/organ (Rattus norvegicus [15]): 2.53%
ID/organ (Rattus norvegicus [16]): 0.779%
ID/organ (Rattus norvegicus [17]): 0.273%
ID/organ (Rattus norvegicus [18]): 0.04%
ID/organ (Rattus norvegicus [19]): 18.1%
ID/organ (Rattus norvegicus [20]): 0.26%
ID/organ (Rattus norvegicus [21]): 4.07%
ID/organ (Rattus norvegicus [22]): 0.889%
ID/organ (Rattus norvegicus [23]): 0.011%
ID/organ (Rattus norvegicus [24]): 4.5%
ID/organ (Rattus norvegicus [25]): 65.7%
ID/organ (Rattus norvegicus [26]): 0.19%
ID/organ (Rattus norvegicus [27]): 0.055%
ID/organ (Rattus norvegicus [28]): 0.005%
ID/organ (Rattus norvegicus [29]): 0.745%
ID/organ (Rattus norvegicus [30]): 0.013%
ID/organ (Rattus norvegicus [31]): 0.264%
ID/organ (Rattus norvegicus [32]): 3.5%
ID/organ (Rattus norvegicus [33]): 17.6%
ID/organ (Rattus norvegicus [34]): 0.002%
ID/organ (Rattus norvegicus [35]): 0.543%
ID/organ (Rattus norvegicus [36]): 18.5%
ID/organ (Rattus norvegicus [37]): 1.23%
ID/organ (Rattus norvegicus [38]): 4.43%
ID/organ (Rattus norvegicus [39]): 0.068%
ID/organ (Rattus norvegicus [40]): 0.268%
ID/organ (Rattus norvegicus [41]): 2.74%
ID/organ (Rattus norvegicus [42]): 0.519%
ID/organ (Rattus norvegicus [43]): 0.423%
ID/organ (Rattus norvegicus [44]): 17.6%
ID/organ (Rattus norvegicus [45]): 20%
ID/organ (Rattus norvegicus [46]): 9.49%
ID/organ (Rattus norvegicus [47]): 0.185%
ID/organ (Rattus norvegicus [48]): 0.556%
ID/organ (Rattus norvegicus [49]): 14.8%
ID/organ (Rattus norvegicus [50]): 18.5%
ID/organ (Rattus norvegicus [51]): 0.202%
ID/organ (Rattus norvegicus [52]): 0.143%
ID/organ (Rattus norvegicus [53]): 0.267%
ID/organ (Rattus norvegicus [54]): 16.3%
ID/organ (Rattus norvegicus [55]): 0.004%
Structure (SMILES): O=C(O)CN(CCN(CC(=O)O)CC(=O)O)CCN(CC(=O)O)CC(=O)O [PENTETIC ACID]
